Data published in patent US8791163B2 (McGill University, priority 2006, dated 2014).

What was measured:
[1] = biological target: T1, cloned human MT1 receptors (Homo sapiens, UniProt P48039); assay: [35S]GTPγS binding assay, NIH3T3 cells expressing human MT1; assay type: biochemical; conditions: for MT1 IAr ± SEM (relative intrinsic activity): maximal net effect relative to MLT; on MT1 Activity: key: A = agonist; PA = partial agonist; ANT = antagonist; IA = Inverse agonist
T1 construct: expressed in transfected cells
T1 sequence (P48039 whole entry): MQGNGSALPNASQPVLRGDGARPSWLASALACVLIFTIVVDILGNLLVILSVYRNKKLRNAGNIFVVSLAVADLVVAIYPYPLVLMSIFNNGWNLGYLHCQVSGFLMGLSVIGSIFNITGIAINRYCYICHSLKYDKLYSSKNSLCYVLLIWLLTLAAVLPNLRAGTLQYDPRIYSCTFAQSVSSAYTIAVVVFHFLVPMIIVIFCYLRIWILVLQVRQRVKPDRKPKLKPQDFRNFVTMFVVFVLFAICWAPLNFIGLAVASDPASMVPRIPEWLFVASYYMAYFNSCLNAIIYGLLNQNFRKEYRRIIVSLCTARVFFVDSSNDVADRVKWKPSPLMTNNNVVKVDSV
Protocol: (§1) Membranes were incubated for 90 min at 37° C. in binding buffer (Tris/HCl 50 mM, pH 7.4). The final membrane concentration was 5-10 μg of protein per tube. […] The pKi values are the mean of at least three independent determinations performed in duplicate. To define the functional activity of the compounds of Formula (I) at the MT1 and MT2 receptor subtypes, [^35S]GTPγS binding assays in NIH3T3 cells expressing human-cloned MT1 or MT2 receptors were performed. The amount of bound [^35S]GTPγS is proportional to the level of analogue-induced G-protein activation and is related to the intrinsic activity of the compound (i.e. a compound of Formula (I)) under study. […] Nonspecific binding was assessed using non-radiolabeled GTPγS (10 μM). […] Basal stimulation is the amount of [^35S]GTPγS specifically bound in the absence of the compounds of Formula (I) and was taken as 100%. […] All of the measurements were performed in triplicate.

[2] = biological target: T1, cloned human MT1 receptors; assay: 2-[125I]iodomelatonin competition binding, human MT1 in NIH3T3 cells; conditions: calculated from IC50 by Cheng-Prusoff, mean of at least three determinations
Protocol: as §1

[3] = biological target: T2, cloned human MT2 receptors (Homo sapiens, UniProt P49286); assay: 2-[125I]iodomelatonin competition binding, human MT2 in NIH3T3 cells; conditions: human MT2 in NIH3T3 cells, calculated from IC50 by Cheng-Prusoff, mean of at least three determinations
T2 construct: expressed in transfected cells
T2 sequence (P49286 1-362): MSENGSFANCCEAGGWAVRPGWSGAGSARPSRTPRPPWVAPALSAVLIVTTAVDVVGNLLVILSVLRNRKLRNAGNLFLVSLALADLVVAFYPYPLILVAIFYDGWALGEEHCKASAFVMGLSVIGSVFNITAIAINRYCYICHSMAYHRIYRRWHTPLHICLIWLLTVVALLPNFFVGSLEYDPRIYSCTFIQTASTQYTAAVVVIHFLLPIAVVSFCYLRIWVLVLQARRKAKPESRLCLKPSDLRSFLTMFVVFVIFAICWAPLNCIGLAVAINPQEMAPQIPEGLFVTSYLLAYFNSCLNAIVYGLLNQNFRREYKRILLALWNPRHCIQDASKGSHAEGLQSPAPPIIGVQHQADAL
Protocol: as §1

[4] = biological target: T2, cloned human MT2 receptors; assay: [35S]GTPγS binding assay, NIH3T3 cells expressing human MT2; assay type: biochemical; conditions: for MT2 IAr ± SEM (relative intrinsic activity): maximal net effect relative to MLT; on MT2 Activity: key: A = agonist; PA = partial agonist; ANT = antagonist; IA = Inverse agonist
Protocol: as §1

Row | MT1 IAr ± SEM (relative intrinsic activity) [1] | MT1 pKi [2] | MT2 pKi [3] | MT2 Activity [4] | MT2 IAr ± SEM (relative intrinsic activity) [4] | Ki ([3]; read-out: MT2 pKi (converted)) | Ki ([2]; read-out: MT1 pKi (converted)) | SMILES | MT1 Activity [1]
1 | 0.59 ± 0.05 | 7.72 ± 0.13 | 10.56 ± 0.10 | ANT | 0.15 ± 0.01 | – | – | COc1cccc(N(CCNC(C)=O)c2cccc(OC)c2)c1 [5c, N-[2-(bis-3-methoxyphenylamino)ethyl]acetamide] | –
2 | 0.06 ± 0.03 | 7.00 ± 0.01 | 9.06 ± 0.10 | ANT | 0.03 ± 0.01 | – | – | COc1ccc(N(CCNC(C)=O)c2cccc(OC)c2)cc1 [5d, N-{2-[(4-Methoxyphenyl)-3-methoxyphenylamino]ethyl}acetamide] | ANT
3 | 0.43 ± 0.04 | 7.77 ± 0.19 | 9.70 ± 0.43 | – | 0.36 ± 0.01 | – | – | CC(=O)NCCN(c1ccccc1)c1cccc(Br)c1 [5f, N-{2-[(3-bromophenyl)-phenylamino]ethyl}acetamide] | –
4 | 0.92 ± 0.06 | 7.30 ± 0.10 | 9.12 ± 0.05 | – | 0.31 ± 0.02 | – | – | COc1cccc(N(CCNC(C)=O)Cc2ccccc2)c1 [5k, N-{2-[(3-Methoxyphenyl)-benzylamino]ethyl}acetamide] | –
5 | 0.84 ± 0.01 | 8.28 ± 0.01 | – | – | 0.94 ± 0.03 | 7.59 nM | – | COc1cccc(NCCNC(C)=O)c1 [5l, N-[2{(3-Methoxyphenyl)-amino]ethyl}acetamide] | –
6 | 0.87 ± 0.05 | 9.08 ± 0.04 | 8.70 ± 0.26 | – | 1.07 ± 0.06 | – | – | COc1cccc(N(C)CCCNC(C)=O)c1 [5m, N-{3-[(3-Methoxyphenyl)-methylamino]propyl}acetamide] | –
7 | 0.22 ± 0.01 | – | 8.43 ± 0.40 | – | 0.29 ± 0.01 | – | 331 nM | COc1cccc(N(CCNC(=O)C2CCC2)c2ccccc2)c1 [5o, N-{2-[(3-Methoxyphenyl)-phenylamino]ethyl}cyclobutancarboxamide] | –
8 | −0.01 ± 0.03 | 5.89 ± 0.07 | 7.28 ± 0.06 | ANT | −0.01 ± 0.03 | – | – | COc1cccc(N(CCN(C)C(C)=O)c2ccccc2)c1 [compound 6] | ANT

Row | SMILES | MT1 IAr ± SEM (relative intrinsic activity) [1] | MT1 pKi [2] | MT2 pKi [3] | MT2 Activity [4] | MT2 IAr ± SEM (relative intrinsic activity) [4] | Ki ([3]; read-out: MT2 pKi (converted)) | Ki ([2]; read-out: MT1 pKi (converted)) | MT1 Activity [1]
9 | COc1cccc(N(CCNC(C)=O)c2ccc3ccccc3c2)c1 [5g, N-{2-[(3-Methoxyphenyl)-β-naphthylamino]ethyl}acetamide] | 0.17 ± 0.03 | 6.88 ± 0.07 | 9.95 ± 0.64 | – | −0.20 ± 0.03 | – | – | ANT
10 | CC(=O)NCCN(c1ccccc1)c1cccc(OCCCCc2ccccc2)c1 [5i] | 0.12 ± 0.02 | 7.45 ± 0.01 | 6.48 ± 0.29 | ANT | 0.01 ± 0.01 | – | – | ANT
